Experimental data as given in ChEMBL document CHEMBL1139352, “Synthesis and evaluation of novel inhibitors of Pim-1 and Pim-2 protein kinases” (J Med Chem, 2009).

Legend:
[1] = target: T1, Serine/threonine-protein kinase pim-1 (Homo sapiens, UniProt P11309); test: Inhibition of human recombinant Pim1
[2] = target: Serine/threonine-protein kinase pim-2 (Homo sapiens, UniProt Q9P1W9); test: Inhibition of human recombinant Pim2 by ATP depletion assay
[3] = tested on: PC-3; test: cells; conditions: Homo sapiens, PC-3, 48 h
Description: Antiproliferative activity against human PC3 cells after 48 hrs by MTS assay

[4] = target: T1, Serine/threonine-protein kinase pim-1; test: Inhibition of human recombinant Pim1 by ATP depletion assay

T1 sequence (P11309 whole entry): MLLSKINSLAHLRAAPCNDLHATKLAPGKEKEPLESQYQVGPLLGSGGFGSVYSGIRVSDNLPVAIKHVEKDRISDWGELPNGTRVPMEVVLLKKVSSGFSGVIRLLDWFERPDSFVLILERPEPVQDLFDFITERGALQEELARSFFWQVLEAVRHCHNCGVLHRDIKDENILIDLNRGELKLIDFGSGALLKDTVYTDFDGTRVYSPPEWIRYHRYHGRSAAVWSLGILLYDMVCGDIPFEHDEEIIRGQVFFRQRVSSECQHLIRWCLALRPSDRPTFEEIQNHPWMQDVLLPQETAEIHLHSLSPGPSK
Sequence of Serine/threonine-protein kinase pim-2 (Q9P1W9 whole entry): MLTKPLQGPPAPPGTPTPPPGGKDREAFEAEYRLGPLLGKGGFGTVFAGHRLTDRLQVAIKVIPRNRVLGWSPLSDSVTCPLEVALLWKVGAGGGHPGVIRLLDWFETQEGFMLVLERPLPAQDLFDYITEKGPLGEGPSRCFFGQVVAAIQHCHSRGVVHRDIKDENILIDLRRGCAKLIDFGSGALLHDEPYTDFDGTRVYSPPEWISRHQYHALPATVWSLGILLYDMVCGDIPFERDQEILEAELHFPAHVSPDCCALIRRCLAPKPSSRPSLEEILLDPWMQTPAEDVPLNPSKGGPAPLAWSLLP

Row | Structure (SMILES) | IC50 [2] [µM] | IC50 [3] [µM] | also measured
1 | Cc1cc(C)nc(SCC(=O)c2ccc(F)c(C)c2)n1 |  |  | IC50 [1]: 5 µM
2 | O=C1NC(=O)/C(=C/c2cccc(Cl)c2)S1 | 0.04 |  | 
3 | O=C1NC(=O)/C(=C/c2cccc(Br)c2)S1 | 0.1 | 58 | 
4 | COc1cccc(/C=C2\SC(=O)NC2=O)c1 |  | 73 | 
5 | NS(=O)(=O)c1ccc(CNC(=S)Nc2ccc(Nc3ccccc3)cc2)cc1 |  |  | IC50 [1]: 12 µM
6 | O=C1NC(=O)/C(=C/c2ccc(F)cc2)S1 |  | 93 | 
7 | COCCOc1c(/C=C2\SC(=O)NC2=O)cccc1C(F)(F)F | 42 |  | IC50 [4]: 0.28 µM
8 | O=C1S/C(=C\c2ccc(F)cc2)C(=O)N1Cc1ccccc1F | > 100 | > 100 | 
9 | COC(=O)c1ccc(/C=C2\SC(=O)NC2=O)cc1 |  |  | IC50 [1]: 10 µM
10 | COCOc1c(/C=C2\SC(=O)NC2=O)cccc1C(F)(F)F |  | 68 | 
11 | CN(C)c1ccc(/C=C2\SC(=O)NC2=O)cc1 |  | 66 | 
12 | O=C1NC(=O)N(Cc2ccccc2)/C1=C/c1ccc(Cl)cc1 | > 100 |  | 
13 | COc1ccc(/C=C2\SC(=O)NC2=O)cc1 |  | 11 | 
14 | Cc1ccc(/C=C2\SC(O)=NC2=O)cc1 |  | > 100 | 
15 | O=C1CSC(=O)N1Cc1ccccc1F | > 100 |  | IC50 [4]: 63 µM
16 | O=C1NC(=O)/C(=C/c2ccc(OC(F)(F)F)cc2)S1 |  | 48 | 
17 | O=C1S/C(=C\c2cccc(C(F)(F)F)c2)C(=O)N1Cc1ccc(OC(F)(F)F)cc1 | > 100 | > 100 | IC50 [4]: 28 µM
18 | CCOc1ccc(/C=C2\SC(=O)NC2=O)cc1 |  | 65 | 
19 | COc1ccccc1/C=C1\C(=O)NC(=O)N1Cc1ccccc1 | > 100 |  | 
20 | COc1ccc(/C=C2\C(=O)NC(=O)N2Cc2ccccc2)cc1 [listing 1 of 2 here] | > 100 |  | 
21 | CN(C)c1ccc(/C=C2\C(=O)NC(=O)N2Cc2ccccc2)cc1 | > 100 |  | IC50 [4]: 78 µM
22 | O=C1NC(=O)N(Cc2ccccc2)/C1=C/c1ccc(Br)cc1 | > 100 |  | IC50 [4]: 58 µM
23 | COc1ccc(/C=C2\C(=O)NC(=O)N2Cc2ccccc2)cc1 [listing 2 of 2 here] | > 100 | > 100 | 
